Measured values taken from a melting point compilation (Tetko et al.; mined from patent text by program, amines drawn as free bases though some values may be those of a salt).

First: Cc1c(NC(=O)c2ccc(C(C)(C)C)cc2)nc2ccc(-n3ccnc3)nn12
Second: CC(=O)Nc1ccc2c(c1)cc(C(=O)c1ccc(F)cc1)n2C
The melting point of the first is higher: 302 to 303 °C for the first, 213 to 215 °C for the second.

Compared with `COc1ccc(C2CCc3ccccc3C2=O)cc1` (stereo unspecified), `COc1ccccc1-c1c2nn(-c3ccc(Cl)cc3)c(=O)c-2c[nH]c1C` is higher in melting point: 107 to 108 °C for the first, 267 to 278 °C for the second.

Going from `CSc1ccc(C)cc1C(N)=S` to `CCOC(=O)C(C)=NNc1ccc(C)cc1C`, the melting point falls from 160 °C to 146 °C.

First: CC(C)(C)c1ccc(C2CCCN3CCS(=O)(=O)N=C23)cc1 (stereo unspecified)
Second: COC(=O)c1ccc(C2CCC(=O)CC2)cc1
The melting point of the first is higher: 232 to 236 °C for the first, 91 to 92 °C for the second.

Compared with `CCOC(=O)Cc1nc(-c2ccccc2)oc1-c1ccco1`, `CCOC(=O)CCc1cc(-c2cc3ccccc3c(=O)o2)ccc1O` is higher in melting point: 79 to 80 °C for the first, 179 to 180 °C for the second.

Compared with `CC(Cc1ccc(Br)cc1)C(=O)NC(C)(C)CO` (stereo unspecified), `Cc1ccc(COC(=O)NC(CO)Cc2ccc(O)cc2)cc1` (stereo unspecified) is higher in melting point: 120 to 121 °C for the first, 128 to 129 °C for the second.

First: CCCCc1nc2c(N)nc3ccccc3c2n1CCCCN1CCCS1(=O)=O
Second: CC(=O)OCCCCn1cnc2c(Cl)nc(Nc3ccccc3)nc21
The melting point of the first is lower: 173 to 176 °C for the first, 195 to 197 °C for the second.

Compared with `CNC(=O)c1ccc(C(C)(C)CCNC(=O)NCc2ccc(N)nc2)nc1Nc1ccccc1`, `CCN(C(=O)Cn1c(=O)n(C)c2nc(-c3ccccc3)ncc21)c1ccc(O)cc1` is higher in melting point: 134 °C for the first, 254 to 256 °C for the second.

Compared with `CN(CC(=O)NO)C(=O)[C@H]1CCCC[C@H]1C(=O)O` (relative stereo), `CCOC(=O)N1CCC(Nc2cc(OC)ccc2N)CC1` is lower in melting point: 131 to 133 °C for the first, 97 to 99 °C for the second.

Compared with `CN1CC(c2cc(OCc3ccccc3)ncn2)=C(O)C1=O`, `C#CC[C@@H](N)c1nc2cc(Cl)ccc2c(=O)n1Nc1ccccc1` is lower in melting point: 203 to 204 °C for the first, 175 to 180 °C for the second.

Compared with `O=C(Nc1ccccc1)Nc1ccc(F)c([N+](=O)[O-])c1`, `Nc1ccc(Cl)cc1Cc1ccccc1F` is lower in melting point: 200 to 202 °C for the first, 175 to 181 °C for the second.

First: OC1(c2ccccc2Cc2cc(F)ccc2F)CCN(Cc2ccccc2)CC1
Second: Cc1c(NC(=O)c2ccc(CC(=O)c3ccccc3)cc2)ccc2cc(CN3CCCC3)cnc12
The melting point of the first is lower: 143 to 146 °C for the first, 187 °C for the second.

First: CCCN(CCC)C(=O)c1cc(C(=O)O)cc(-c2ncco2)c1
Second: CCOC(=O)c1cc(OC(C)=O)c2cc(OC)ccc2c1
The melting point of the first is higher: 131 to 133 °C for the first, 104 °C for the second.

Compared with `CNC(=O)CC1CN=C(c2cc3cc(Oc4ccc(S(C)(=O)=O)cc4)cc(OC)c3[nH]2)S1` (stereo unspecified), `CN(c1cccc2cc(C3=NCC(C(N)=O)S3)[nH]c12)S(=O)(=O)c1cccs1` (stereo unspecified) is higher in melting point: 125 to 126 °C for the first, 230 to 232 °C for the second.

First: Cc1nc2c3c(c(C(=O)N(C)CCO)cc2n1C)CCC1(Cc2ccccc2C1)N3
Second: O=C(O)C1(O)CCc2ccccc2C1 (single isomer, unassigned; (-))
The melting point of the first is higher: 194 to 195 °C for the first, 134 to 135 °C for the second.

Compared with `Cc1cc(SC#N)c(C(C)(C)C)cc1O`, `COP(=O)(CCC(C)(C)c1cc(O)c(C(C)(C)C)cc1O)OC` is higher in melting point: 99 to 102 °C for the first, 193 to 195 °C for the second.

First: COc1cc(OCc2ccccn2)ccc1/C=C/c1cc(/C=C/c2cccc3[nH]ccc23)n[nH]1
Second: OCCCCc1ccc(OCc2coc(/C=C/c3ccccc3)n2)cc1
The melting point of the first is higher: 108 to 113 °C for the first, 90 to 91 °C for the second.

First: Cc1c(C(=O)O)ccc(S(C)(=O)=O)c1C1=NOCC1
Second: Nc1cccc(C(=O)O)c1S(=O)(=O)CCO
The melting point of the first is higher: 182 to 184 °C for the first, 75 to 77 °C for the second.

Compared with `CN(CCOc1ccc(/C=C/CO)cc1F)c1ccccn1`, `CN(CCOc1ccc(C=C2SC(=O)NC2=O)cc1)c1nccs1` is higher in melting point: 80 to 81 °C for the first, 212 °C for the second.

First: CC12CC3(C)CC(c4ccc(C(=O)O)cc4)(C1)CC(c1ccc(C(=O)O)cc1)(C2)C3
Second: COc1ccc(-c2cc3ccc(C(=O)O)cc3o2)cc1C12CC3CC(CC(C3)C1)C2
The melting point of the first is lower: 252 to 255 °C for the first, 290 °C for the second.

First: Cc1nn(-c2c(Cl)cc(C(F)(F)F)cc2Cl)nc1CC#N
Second: NS(=O)(=O)c1ccc(-n2nc(C(F)(F)F)cc2-c2ccc(OS(=O)(=O)C(F)(F)F)c(Cl)c2)cn1
The melting point of the first is lower: 103 to 104 °C for the first, 118 to 120 °C for the second.

First: CCCCc1nc2cccc(C(=O)OC)c2n1Cc1ccc(-c2ncncc2C#N)cc1
Second: CCCCc1ccc(NC=C(C#N)C(=O)OCC)nc1
The melting point of the first is higher: 131 to 133 °C for the first, 69 to 73 °C for the second.

First: CC(C)(C)OC(=O)C[C@H](NC(=O)CNC(=O)c1csc(NC(=O)NCc2ccccc2)n1)C(=O)Nc1ccccc1C(=O)OC(C)(C)C
Second: O=C(NCC(=O)N1c2ccccc2N(Cc2ccccc2)C(=O)[C@H]2CCC[C@H]21)c1ccccc1[N+](=O)[O-] (relative stereo)
The melting point of the first is lower: 116 °C for the first, 132 to 135 °C for the second.

First: CC(C)(C)OC(=O)N1C(=O)O[C@@H](c2ccncc2)[C@H]1Cc1ccc(C(F)(F)F)cc1 (racemic)
Second: O=C(Nc1ccc(N2CCOCC2)c(C(F)(F)F)c1)c1ccc(F)c(OCc2cncc3ccccc23)c1
The melting point of the first is lower: 166 to 168 °C for the first, 175 to 180 °C for the second.

First: CNc1cc(O)c(OCCO)cc1[N+](=O)[O-]
Second: COc1cc([N+](=O)[O-])ccc1-c1cnn(C)c1
The melting point of the first is higher: 210 °C for the first, 132 to 134 °C for the second.

First: CCN1CC(=O)N(c2cc(Cl)ccc2C)C1=S
Second: Cc1nn(-c2ccc(Cl)cc2)c(=O)[nH]1
The melting point of the first is lower: 152 to 154 °C for the first, 218 to 219 °C for the second.

Compared with `Cc1c(C2CCC(c3ccccc3)(N(C)C)CC2)[nH]c2ccc(F)cc12` (stereo unspecified), `Cc1nc2cc(-c3ccccc3C#N)ccc2[nH]1` is higher in melting point: 199 to 205 °C for the first, 205 to 208 °C for the second.

First: CC[C@@H]1N(c2ccc(C#N)c(Cl)c2C)C(=O)C[C@@]1(O)C1CC1
Second: Cc1cccc2c(=O)[nH]c(C3CCN(CCCO)CC3)cc12
The melting point of the first is lower: 177 to 179 °C for the first, 197 to 199 °C for the second.

First: O=C(O)CCc1c(C(=O)O)[nH]c2cc(Br)ccc12
Second: CCC(O)(CC)c1cccc2[nH]c(=O)n(C)c12
The melting point of the first is higher: 234 to 235 °C for the first, 199 to 201 °C for the second.

First: COc1cccc2c1CC(=O)CO2
Second: CN(C)C(=O)NCC1(C)OCCc2c1[nH]c1ccccc21 (stereo unspecified)
The melting point of the first is lower: 53 to 54 °C for the first, 153 to 155 °C for the second.

First: CS(=O)(=O)Nc1cccc(Nc2nc(OC3CCCC3)c3cc[nH]c3n2)c1
Second: Cc1cc(Nc2ccccc2C(=O)N2CCCCC2)ccn1
The melting point of the first is higher: 203 to 205 °C for the first, 93 to 95 °C for the second.

First: COc1ccc(C=O)c(Br)c1Oc1ccc([N+](=O)[O-])cc1
Second: CCN(c1ccc([N+](=O)[O-])cc1[N+](=O)[O-])S(=O)(=O)c1ccc(C)cc1
The melting point of the first is lower: 115 to 117 °C for the first, 135 to 136 °C for the second.

First: O=Cc1ccn(C2=CC3=C(CC2)CCc2[nH]c(=O)c(=O)[nH]c23)c1
Second: O=C1C(=Cc2ccc(Br)cc2)CCc2cc(OCCn3ccnc3)ccc21
The melting point of the first is higher: over 250 °C for the first, 152 to 153 °C for the second.

First: O=C(NCc1ccccn1)c1cc2ccnc(Cl)c2[nH]1
Second: Cc1cc(-c2ccccc2)n2nccc2n1
The melting point of the first is higher: 177 to 183 °C for the first, 70 to 71 °C for the second.

First: N#Cc1ccc(CNC(=O)c2ccc(C=O)cc2)cc1
Second: O=C1NC(=O)C(Cc2ccc(OCCc3cccc4ccccc34)cc2)S1 (stereo unspecified)
The melting point of the first is higher: 170 °C for the first, 121 to 122 °C for the second.

First: C=CC(CSCCC(F)(F)C(F)(F)C(F)(F)C(F)(F)C(F)(F)C(F)(F)F)SSc1nc2ccccc2s1 (stereo unspecified)
Second: C1=c2ccccc2=C2N=c3ccc4ccccc4c3=C2C1
The melting point of the first is lower: 47 to 48 °C for the first, 238 °C for the second.

Compared with `CN1CCC(CCCC2CCN(CC(=O)N3c4ccccc4C(=O)Nc4cccnc43)CC2)CC1`, `O=S(=O)(CCN1CCOCC1)OCCOc1ccn(-c2ccc(Cl)c(Cl)c2)n1` is lower in melting point: 192 to 194 °C for the first, 120 to 122 °C for the second.

Compared with `CCN(c1nc(NCCO)nc(N(CC)C2CC(C)(C)NC(C)(C)C2)n1)C1CC(C)(C)NC(C)(C)C1`, `CCC(CC)N(C[C@@H]1CCC[C@H](CN(C(=O)Nc2ccc(N(C)C)cc2)C(CC)CC)C1)C(=O)Nc1ccc(N(C)C)cc1` is lower in melting point: 184 to 185 °C for the first, 157 to 160 °C for the second.

First: COc1ccc(CCN(C)CCCC(C#N)(C(=O)OC(C)C)c2ccc(OC)c(OC)c2)cc1OC (stereo unspecified)
Second: COc1ccc(CCCN(Cc2ccccc2)C[C@@H](O)c2ccc(OCc3ccccc3)c(OCc3ccccc3)c2)cc1
The melting point of the first is higher: 66 to 67 °C for the first, 59 to 62 °C for the second.

First: CCc1c(Cc2cc(C)cc(C)c2)n(COCCCCO)c(=O)[nH]c1=O
Second: CCCCc1cc2cc(C(=O)NOCc3ccccc3)ccn2c1C(=O)c1ccc(OCCCN(CCCC)CCCC)cc1
The melting point of the first is lower: 101 to 103 °C for the first, 118 to 119 °C for the second.

First: Clc1ccc(N=c2ccn3ccccc3c2)cc1
Second: Oc1ccccc1Oc1ccc(Cl)cn1
The melting point of the first is higher: 183 to 184 °C for the first, 97 to 100 °C for the second.

Compared with `c1ccc(-c2nc(-c3ccccc3)c(-c3ccccc3)s2)cc1`, `CSc1nc2ccc(C)cc2c2nn(-c3ccccc3)c(=O)n12` is higher in melting point: 84 to 85.5 °C for the first, over 400 °C for the second.

Going from `CC#CCOc1ccc(SC(C(=O)O)c2cccc(Cl)c2)cc1` (stereo unspecified) to `COC(=O)Cc1ccc(OCCNC(=O)C2Cc3ccccc3N2S(=O)(=O)c2ccc(-c3ccc(F)cc3Cl)cc2)cc1` (stereo unspecified), the melting point rises from 64 °C to 68 °C.

Compared with `CS(=O)(=O)c1ccc(-c2ccc(N=[N+]=[N-])nc2-c2ccc(F)cc2)cc1`, `Clc1ccc(-c2ccc(N3CCCN(c4ccc(-c5ccc(Cl)cc5)cn4)CC3)nc2)cc1` is higher in melting point: 229 °C for the first, 245 to 247 °C for the second.

Going from `NC(=O)N1C(=O)C(C(=O)c2ccco2)c2ncc(Cl)cc21` (stereo unspecified) to `COC(=O)c1occc1NC(N)=O`, the melting point falls from over 250 °C to 208 °C.

First: N#Cc1ccc(C=C2CCCC2)s1
Second: COCOc1ccc(O)c(CC#N)c1
The melting point of the first is higher: 98 to 100 °C for the first, 68 to 69 °C for the second.

Compared with `CON=C(Nc1nc(C)cc(C)n1)NS(=O)(=O)c1ccccc1S(=O)(=O)OC`, `Cc1ccc(-c2cnc(N)c(C(=O)Nc3cccnc3)n2)cc1C` is higher in melting point: 130 to 138 °C for the first, 178 to 182 °C for the second.

First: CCS(=O)(=O)c1ccc(SC2SCC(O)C(O)C2O)cc1 (stereo unspecified)
Second: CC(=O)OC1CSC(Oc2cncc(Cl)c2)C(OC(C)=O)C1OC(C)=O (stereo unspecified)
The melting point of the first is lower: 130 to 135 °C for the first, 160 °C for the second.

First: CCOC(=O)C1=NNC(C)=C(C(=O)OCC)C1c1cccc([N+](=O)[O-])c1 (stereo unspecified)
Second: CNC(=O)c1cccc(I)c1
The melting point of the first is higher: 117 °C for the first, 94 to 97 °C for the second.

First: CC1(O/N=C(\C(=O)O)c2csc(N)n2)CCCCC1
Second: CCSc1scnc1C(=O)O
The melting point of the first is higher: 203 to 204 °C for the first, 158 to 159 °C for the second.

Work on `CC1CC(=O)N(c2cc(C(C)(C)C)c(O)c(C(C)(C)C)c2)C1` (stereo unspecified) yielded a melting point of 157 to 159 °C.
